Patent publication US9809623B2, “α4β7 peptide monomer and dimer antagonists” (Protagonist Therapeutics, Inc., priority 2014, dated 2017)
Numbered stars: 1 amine (or outer) side, 2 acyl side, 3 side chain; on linkers, the order of the positions; unused ones are H or OH. Bridge positions count the residues as written; N and C are the ends. Square brackets hold non-standard residues; d marks the D form. Peptide text beside a SMILES is read from it. I, II: the chains in the order shown. ξ: configuration not given here. Phe(4-tBu) = CC(C)(C)c1ccc(C[C@H](N)C(=O)O)cc1; Diglycolyl = O=C(COCC(=O)[*:2])[*:1]; NMeR = CN[C@@H](CCCNC(=N)N)C(=O)O; β3hE = N[C@@H](CCC(=O)O)CC(=O)O; Thr(3ξ) = CC(O)[C@H](N)C(=O)O; Pen = CC(C)(S)[C@H](N)C(=O)O

How the values were obtained:
FIG. 5 = assay: FIG. 5
Excerpt: Table printed on a drawing sheet, FIG. 5
Footnotes: SIF- simulated intestinal fluid (porcine) / RIW- rat intestinal wash / HIF- human intestinal fluid / CW- colonic wash (rat) / IMH- intestinal mucosal homogenate (rat) / CMG- colonic mucosal homogenate (rat) / SGF- simulated gastric fluid (porcine) / Hu S9- human intestinal S9 fraction / RL S9- rat liver S9
First reader's note: The first column is printed empty in all rows, so no substance name appears on the sheet; the column head reads CMH while the legend prints CMG.

[1] = test system: BALB/c mice, chronic DSS colitis; assay: 15 day chronic DSS colitis mouse model; type: in vivo; settings: all doses: 55, 17 or 6 mg/kg/day in drinking water
Protocol: To further evaluate the efficacy of peptides of the present invention in treating colitis, a chronic DSS colitis mouse model was used to examine the effects of orally administered Peptide X or another peptide, Peptide XX, as compared to vehicle control or the antibodies, MECA 367 and DATK32. Peptide XX is a dimer having the following structure, where DIG links the two peptide monomers by their C-termini:
In this 15 day chronic DSS colitis study, BALB/c mice were treated continuously with 2.5% DSS. Peptide X dosing was 55 mg/kg/day, 17 mg/kg/day or 6 mg/kg/day in drinking water. Peptide XX dosing was 10 mg/kg PO BID plus 0.2 mg/ml in drinking water. The anti-α4β7 Ab DATK32 was dosed 25 mg/kg IP every 3 days, and the anti-MAdCAM Ab MECA 367 was dosed 8 mg/kg IP daily. After takedown, distal colon sections were fixed for histopathology and processed for β7+ cell IH staining using the anti-β7 antibody M293.

[2] = PK studies in normal or DSS treated mice and rats, oral dosing; type: in vivo

## CC(=O)N[C@@H]1C(=O)N(C)[C@@H](CCCNC(=N)N)C(=O)N[C@@H](CO)C(=O)N[C@@H](CC(=O)O)C(=O)N[C@@H](C(C)O)C(=O)N[C@@H](CC(C)C)C(=O)N[C@H](C(=O)N[C@@H](Cc2ccc(C(C)(C)C)cc2)C(=O)N[C@@H](CCC(=O)O)CC(=O)N[C@H](CCCCNC(=O)COCC(=O)NCCCC[C@@H](NC(=O)C[C@H](CCC(=O)O)NC(=O)[C@H](Cc2ccc(C(C)(C)C)cc2)NC(=O)[C@H]2NC(=O)[C@H](CC(C)C)NC(=O)[C@H](C(C)O)NC(=O)[C@H](CC(=O)O)NC(=O)[C@H](CO)NC(=O)[C@H](CCCNC(=N)N)N(C)C(=O)[C@@H](NC(C)=O)C(C)(C)SSC2(C)C)C(N)=O)C(N)=O)C(C)(C)SSC1(C)C (stereo partly drawn) [Peptide X, [Ac-Pen-(N-Me-Arg)-Ser-Asp-Thr-Leu-Pen-(Phe(4-tBu))-(β-homoGlu)-(D-Lys)]2-DIG] (I: Ac-[Pen][NMeR]SD[Thr(3ξ)]L[Pen][Phe(4-tBu)][β3hE][dK]-NH2 / II: Ac-[Pen][NMeR]SD[Thr(3ξ)]L[Pen][Phe(4-tBu)][β3hE][dK]-NH2; disulfide I:1-I:7, II:1-II:7; linker I:10-II:10 via Diglycolyl)
FIG. 5
  Intestinal half-life | CMH: >6 h
  Intestinal half-life | CW: >6 h
  Intestinal half-life | HIF: >24 h
  Intestinal half-life | IMH: >6 h
  Intestinal half-life | SIF: 11 h
  Metabolism | Hu S9: >6 h
  Metabolism | RL S9: >6 h
[1]
  infiltration of B7+ cells into the lamina propria of the distal colon: reduced infiltration
[2]
  levels in the blood and urine after oral dosing: no significant measurable levels in the blood and urine
